System: Karpas cells
Experiment: Detection of surface protein combinations of the protein network on untreated (V1) and actinonin-treated (V2) Karpas cells
Format: cell-based
Conditions: for V2 no. of cells In 1/1OOO / V2 No. of cells In 1/1000: actinonin-treated Karpas cells (V2)
Source text: Principally, detecting of the surface protein combinations may comprise procedural steps of an automated method for determining molecular classes, molecular groups or molecular parts in a solid or liquid object according to DE 197 09 348 C. In these steps, surface proteins may be examined and measured in one and the same object, i.e. in a sample of immune cells and/or tumor cells for example, by sequentially applying reagent solutions Yn (n=1,2,3, . . . N) by means of an automated apparatus, said procedural steps being: I. taking a first reagent solution Y1 from a vessel containing the reagent solution, II. applying said reagent solution Y1 to the object which is on an object slide, III. allowing the reagent solution to react for an automatically set period of time, IV. recording at least one individual labeling pattern of the object previously labeled with said first reagent solution Y1, V. repeating steps I-IV by applying said first reagent solution Y1 or a second reagent solution Y2 or a mixture of said first and second reagent solutions, and VI. repeating steps I to V with further reagent solutions Yn (n=2,3, . . . N) or a mixture thereof and whereby the labeling distribution patterns obtained in each cycle of the method are turned into a complex molecular combination pattern of the object to be examined by computer-aided image overlay. From this combination pattern, information may be gained on the presence of the above mentioned proteins, thus also allowing detection of the surface protein combinations, if the reagent solutions used contain labeled substances directed against the proteins in question. In numerous examinations, it was possible to identify the 30 cell surface proteins already listed above which belong to a specific protein network controlling the early polarization stages of tumor cells and immune cells. In a further examination, surface protein combinations of this protein network of Karpas cells were detected, both in untreated form and after treatment with the aminopeptidase inhibitor actinonin. For this purpose, two groups V1 and V2 of Karpas cells were formed, with the cells of group Vl remaining untreated, while the cells of group V2 were treated with actinonin. Table 2 lists those surface protein combinations which are present both in the actinonin-treated cells and in the untreated cells. However, this table and the further tables 3 and 4 only give examples of 18 of the 30 proteins, with the detected proteins being designated 1 and the non-detected proteins being designated 0. The proteins are continuously numbered 1 to 18, with the nomenclature being notable from table 1. [table] The cell numbers stated in tables 2 to 4 refer to each 1,000 cells examined in groups V1 and V2. Table 3 lists the surface protein combinations which only occur in the untreated Karpas cells and are never found in the actinonin-treated Karpas cells. The number of protein combinations listed in this table 3 amounts to 131. Finally, table 4 exclusively lists those surface protein combinations which occur exclusively in the actinonin-treated Karpas cells. It may be gathered from tables 2 to 4 that, if one examines merely 18 proteins of the 30 proteins, a total of 394 different surface protein combinations will occur, with a total of 334 different combinations occurring in the untreated cells and a total of 263 different combinations being detected in the treated cells.

CCCCC[C@H](CC(=O)NO)C(=O)N[C@H](C(=O)N1CCC[C@H]1CO)C(C)C [actinonin]
number of different surface protein combinations detected in the treated cells (18 of the 30 proteins examined, untreated cells: 334, overall 394): 263
number of surface protein combinations present both in actinonin-treated and untreated cells (Table 2, 18 proteins): 203
number of surface protein combinations occurring only in untreated Karpas cells, never found in actinonin-treated cells (Table 3, 18 proteins): 131
number of surface protein combinations occurring exclusively in the actinonin-treated Karpas cells (Table 4, 18 proteins): 60
effect of the modification of surface protein combinations on cell polarization (actinonin-treated Karpas cells): specific blocking of cell polarization
V2 no. of cells In 1/1OOO (protein code No. 149, proteins 1-18 binary 000100010111001000): 0.1 1/1OOO
V2 no. of cells In 1/1OOO (protein code No. 150, proteins 1-18 binary 000000010101011000): 0.1 1/1OOO
V2 no. of cells In 1/1OOO (protein code No. 151, proteins 1-18 binary 011000001101001000): 0.2 1/1OOO
V2 no. of cells In 1/1OOO (protein code No. 152, proteins 1-18 binary 010000011101001000): 0.2 1/1OOO
V2 no. of cells In 1/1OOO (protein code No. 153, proteins 1-18 binary 001100010111011100): 0.2 1/1OOO
V2 no. of cells In 1/1OOO (protein code No. 154, proteins 1-18 binary 000000001000001000): 0.2 1/1OOO
V2 no. of cells In 1/1OOO (protein code No. 155, proteins 1-18 binary 111000011100011100): 0.3 1/1OOO
V2 no. of cells In 1/1OOO (protein code No. 156, proteins 1-18 binary 010000001101000000): 0.3 1/1OOO
V2 no. of cells In 1/1OOO (protein code No. 157, proteins 1-18 binary 001000010001000100): 0.3 1/1OOO
V2 no. of cells In 1/1OOO (protein code No. 158, proteins 1-18 binary 100100000000001000): 0.5 1/1OOO
V2 no. of cells In 1/1OOO (protein code No. 159, proteins 1-18 binary 010000011001000000): 0.5 1/1OOO
V2 no. of cells In 1/1OOO (protein code No. 160, proteins 1-18 binary 001000010101011100): 0.5 1/1OOO
V2 no. of cells In 1/1OOO (protein code No. 161, proteins 1-18 binary 000000011001001000): 0.5 1/1OOO
V2 no. of cells In 1/1OOO (protein code No. 162 (second line so numbered, r189), proteins 1-18 binary 010000001100011000): 0.2 1/1OOO
V2 no. of cells In 1/1OOO (protein code No. 162, proteins 1-18 binary 011100011101011000): 0.1 1/1OOO
V2 no. of cells In 1/1OOO (protein code No. 163, proteins 1-18 binary 011000011100011100): 0.1 1/1OOO
V2 no. of cells In 1/1OOO (protein code No. 164, proteins 1-18 binary 010000001101001000): 0.1 1/1OOO
V2 no. of cells In 1/1OOO (protein code No. 165, proteins 1-18 binary 001000010001001100): 0.1 1/1OOO
V2 no. of cells In 1/1OOO (protein code No. 166, proteins 1-18 binary 111100111111011100): 0.2 1/1OOO
V2 no. of cells In 1/1OOO (protein code No. 167, proteins 1-18 binary 111100001100001100): 0.2 1/1OOO
V2 no. of cells In 1/1OOO (protein code No. 168, proteins 1-18 binary 011000011100000000): 0.2 1/1OOO
V2 no. of cells In 1/1OOO (protein code No. 169, proteins 1-18 binary 001100010000001000): 0.2 1/1OOO
V2 no. of cells In 1/1OOO (protein code No. 170, proteins 1-18 binary 001100000001001000): 0.2 1/1OOO
V2 no. of cells In 1/1OOO (protein code No. 171, proteins 1-18 binary 001000011000000000): 0.2 1/1OOO
V2 no. of cells In 1/1OOO (protein code No. 172, proteins 1-18 binary 000000010001011000): 0.2 1/1OOO
V2 no. of cells In 1/1OOO (protein code No. 173, proteins 1-18 binary 011100011100011100): 0.3 1/1OOO
V2 no. of cells In 1/1OOO (protein code No. 174, proteins 1-18 binary 111100001100011100): 0.1 1/1OOO
V2 no. of cells In 1/1OOO (protein code No. 175, proteins 1-18 binary 101100011101011000): 0.1 1/1OOO
V2 no. of cells In 1/1OOO (protein code No. 176, proteins 1-18 binary 101000010011001000): 0.1 1/1OOO
V2 no. of cells In 1/1OOO (protein code No. 177, proteins 1-18 binary 100000000000001000): 0.1 1/1OOO
V2 no. of cells In 1/1OOO (protein code No. 178, proteins 1-18 binary 000100010101011000): 0.1 1/1OOO
V2 no. of cells In 1/1OOO (protein code No. 179, proteins 1-18 binary 000000001101001000): 0.1 1/1OOO
V2 no. of cells In 1/1OOO (protein code No. 180, proteins 1-18 binary 111100011111011000): 0.2 1/1OOO
V2 no. of cells In 1/1OOO (protein code No. 181, proteins 1-18 binary 101100110101011000): 0.2 1/1OOO
V2 no. of cells In 1/1OOO (protein code No. 183, proteins 1-18 binary 001100010100001000): 0.2 1/1OOO
V2 no. of cells In 1/1OOO (protein code No. 184, proteins 1-18 binary 001000011011011000): 0.2 1/1OOO
V2 no. of cells In 1/1OOO (protein code No. 185, proteins 1-18 binary 001000011011000000): 0.2 1/1OOO
V2 no. of cells In 1/1OOO (protein code No. 186, proteins 1-18 binary 000000011011000000): 0.2 1/1OOO
V2 no. of cells In 1/1OOO (protein code No. 187, proteins 1-18 binary 111000001100001000): 0.1 1/1OOO
V2 no. of cells In 1/1OOO (protein code No. 188, proteins 1-18 binary 101000110111011100): 0.1 1/1OOO
V2 no. of cells In 1/1OOO (protein code No. 189, proteins 1-18 binary 011100011100001100): 0.1 1/1OOO
V2 no. of cells In 1/1OOO (protein code No. 190, proteins 1-18 binary 011100011001001000): 0.1 1/1OOO
V2 no. of cells In 1/1OOO (protein code No. 191, proteins 1-18 binary 010000001111001000): 0.1 1/1OOO
V2 no. of cells In 1/1OOO (protein code No. 192, proteins 1-18 binary 001100011111011100): 0.1 1/1OOO
V2 no. of cells In 1/1OOO (protein code No. 193, proteins 1-18 binary 001100010011000000): 0.1 1/1OOO
V2 no. of cells In 1/1OOO (protein code No. 194, proteins 1-18 binary 001000110011011000): 0.1 1/1OOO
V2 no. of cells In 1/1OOO (protein code No. 195, proteins 1-18 binary 001000010011001100): 0.1 1/1OOO
V2 no. of cells In 1/1OOO (protein code No. 198 (first line so numbered, r203), proteins 1-18 binary 001000010010000000): 0.1 1/1OOO
V2 No. of cells In 1/1000 (surface protein combination No. 3, binary code proteins 1-18: 011100011101011100, untreated V1: 0.8): 0.0 1/1000
V2 No. of cells In 1/1000 (surface protein combination No. 4, binary code proteins 1-18: 101000010011011000, untreated V1: 0.7): 0.0 1/1000
V2 No. of cells In 1/1000 (surface protein combination No. 5, binary code proteins 1-18: 001000110101011000, untreated V1: 0.7): 0.0 1/1000
V2 No. of cells In 1/1000 (surface protein combination No. 6, binary code proteins 1-18: 000100000000001100, untreated V1: 0.7): 0.0 1/1000
V2 No. of cells In 1/1000 (surface protein combination No. 7, binary code proteins 1-18: 101000011111011000, untreated V1: 0.6): 0.0 1/1000
V2 No. of cells In 1/1000 (surface protein combination No. 8, binary code proteins 1-18: 001000000010000000, untreated V1: 0.6): 0.0 1/1000
V2 No. of cells In 1/1000 (surface protein combination No. 9, binary code proteins 1-18: 111100011101011100, untreated V1: 0.5): 0.0 1/1000
V2 No. of cells In 1/1000 (surface protein combination No. 10, binary code proteins 1-18: 001100011101000000, untreated V1: 0.5): 0.0 1/1000
V2 No. of cells In 1/1000 (surface protein combination No. 11, binary code proteins 1-18: 000000011111001000, untreated V1: 0.5): 0.0 1/1000
V2 No. of cells In 1/1000 (surface protein combination No. 12, binary code proteins 1-18: 111000011101011100, untreated V1: 0.4): 0.0 1/1000
V2 No. of cells In 1/1000 (surface protein combination No. 13, binary code proteins 1-18: 110000001100001000, untreated V1: 0.4): 0.0 1/1000
V2 No. of cells In 1/1000 (surface protein combination No. 14, binary code proteins 1-18: 101100011111001000, untreated V1: 0.4): 0.0 1/1000
V2 No. of cells In 1/1000 (surface protein combination No. 15, binary code proteins 1-18: 101000010001011000, untreated V1: 0.4): 0.0 1/1000
V2 No. of cells In 1/1000 (surface protein combination No. 16, binary code proteins 1-18: 100100000100011000, untreated V1: 0.4): 0.0 1/1000
V2 No. of cells In 1/1000 (surface protein combination No. 17, binary code proteins 1-18: 100100000001001100, untreated V1: 0.4): 0.0 1/1000
V2 No. of cells In 1/1000 (surface protein combination No. 18, binary code proteins 1-18: 100000000000011000, untreated V1: 0.4): 0.0 1/1000

Reference: patent US20030130180A1, “Utilization of an aminopeptidase inhibitor” (priority 2000, published 2003)
